Columns and labels:
ureters = experiment: Ureter NIR fluorescence imaging (FLARE); type: in vivo; settings: 35 kg female pig, 5 μmol intravenously, waiting period 30 min, imaged over next 4 hours; Channel 1 (700 nm) or Channel 2 (800 nm)
Method: (§1) Absorbance and fluorescence emission spectra were measured using fiber optic HR2000 absorbance (200-1100 nm) and USB2000FL fluorescence (350-1000 nm) spectrometers (Ocean Optics, Dunedin, Fla.). Excitation was provided by a 532 nm green laser pointer (Opcom Inc., Xiamen, China) set to 5 mW, a 655 nm red laser pointer (Opcom Inc., Xiamen, China) set to 5 mW, or a 770 nm NIR laser diode light source (Electro Optical Components, Santa Rosa, Calif.) set to 10 mW and coupled through a 300 μm core diameter, NA 0.22 fiber (Fiberguide Industries, Stirling, N.J.). In silico calculations of the partition coefficient (log D at pH 7.4) and surface molecular charge and hydrophobicity were calculated using MarvinSketch 5.2.1 by taking major microspecies at pH 7.4 (ChemAxon, Budapest, Hungary). NIR Fluorescence Imaging System The dual-NIR channel FLARE′ imaging system has been described in detail previously (26-28). […] Color and two independent NIR fluorescence emission images (≈700 nm for Channel 1 and ≈800 nm for Channel 2) were acquired simultaneously with custom software at rates up to 15 Hz over a 15 cm diameter field of view. NIR fluorescence from Channel 1 was pseudo-colored in red and NIR fluorescence from Channel 2 was pseudo-colored in lime green prior to merger with the color video image. […] Animal Models and Intraoperative NIR Fluorescence Imaging […]

bile duct = experiment: Bile duct NIR fluorescence imaging (FLARE); type: in vivo; settings: 35 kg female pig, 5 μmol intravenously, 4 hours; Channel 1 (700 nm) or Channel 2 (800 nm)
Method: as §1

thoracic duct = experiment: Thoracic duct NIR fluorescence imaging (FLARE); type: in vivo; settings: 35 kg female pig, 5 μmol subcutaneously into the lower leg, 30 minutes; Channel 1 (700 nm) or Channel 2 (800 nm)
Method: as §1

pan lymph nodes = experiment: Pan lymph node NIR fluorescence imaging (FLARE); type: in vivo; settings: 250 g male rat, 20 nmol intravenously, 4 hours; Channel 1 (700 nm) or Channel 2 (800 nm)
Method: as §1

white adipose tissue = experiment: White adipose tissue NIR fluorescence imaging (FLARE); type: in vivo; settings: 25 g male mouse, 25 nmol intravenously, 4 hours; Channel 1 (700 nm) or Channel 2 (800 nm)
Method: as §1

pancreas = experiment: Pancreas NIR fluorescence imaging (FLARE); type: in vivo; settings: 35 kg female pig, 5 μmol intravenously, 4 hours; Channel 1 (700 nm) or Channel 2 (800 nm)
Method: as §1

pituitary gland = experiment: Pituitary gland NIR fluorescence imaging (FLARE); type: in vivo; settings: 25 g male mouse, 25 nmol intravenously, 4 hours; Channel 1 (700 nm) or Channel 2 (800 nm)
Method: as §1

adrenal = experiment: Adrenal NIR fluorescence imaging (FLARE); type: in vivo; settings: 35 kg female pig, 5 μmol intravenously, 4 hours; Channel 1 (700 nm) or Channel 2 (800 nm)
Method: as §1

ovaries = experiment: Ovary NIR fluorescence imaging (FLARE); type: in vivo; settings: 25 g female mouse, 25 nmol intravenously, 4 hours; Channel 1 (700 nm) or Channel 2 (800 nm)
Method: as §1

spleen = experiment: Spleen NIR fluorescence imaging (FLARE); type: in vivo; settings: 25 g male mouse, 25 nmol intravenously, 4 hours; Channel 1 (700 nm) or Channel 2 (800 nm)
Method: as §1

seminal vesicle = experiment: Seminal vesicle NIR fluorescence imaging (FLARE); type: in vivo; settings: 25 g male mouse, 25 nmol intravenously, 4 hours; Channel 1 (700 nm) or Channel 2 (800 nm)
Method: as §1

salivary glands = experiment: Salivary gland NIR fluorescence imaging (FLARE); type: in vivo; settings: 25 g male mouse, 25 nmol intravenously, 4 hours; Channel 1 (700 nm) or Channel 2 (800 nm)
Method: as §1

stem cells = experiment: Stem cell tracking: NIR fluorescence microscopy of labelled cells; type: cell-based; settings: 2 μM, 30 min incubation at 37° C., fixed in 2% paraformaldehyde, 10 μm sections; fluorescence microscope Channel 1 (700 nm) or Channel 2 (800 nm)
brown fat = experiment: Brown adipose tissue NIR fluorescence imaging (FLARE); type: in vivo; settings: 25 g male mouse, 25 nmol intravenously, 4 hours; Channel 1 (700 nm) or Channel 2 (800 nm)
Method: as §1

thyroid = experiment: Thyroid NIR fluorescence imaging (FLARE); type: in vivo; settings: 35 kg female pig, 5 μmol intravenously, 4 hours; Channel 1 (700 nm) or Channel 2 (800 nm)
Method: as §1

parathyroid = experiment: Parathyroid NIR fluorescence imaging (FLARE); type: in vivo; settings: 35 kg female pig, 5 μmol intravenously, 4 hours; Channel 1 (700 nm) or Channel 2 (800 nm)
Method: as §1

choroid plexus = experiment: Choroid plexus NIR fluorescence imaging (FLARE); type: in vivo; settings: 25 g male mouse, 25 nmol intravenously, 4 hours; Channel 1 (700 nm) or Channel 2 (800 nm)
Method: as §1

CSF = CSF NIR fluorescence imaging (FLARE); type: in vivo; settings: 35 kg female pig, 5 μmol intravenously, 4 hours; Channel 1 (700 nm) or Channel 2 (800 nm)
Method: as §1

brain grey matter = experiment: Brain grey matter NIR fluorescence imaging (FLARE); type: in vivo; settings: 25 g male mouse, 25 nmol intravenously, 4 hours; Channel 1 (700 nm) or Channel 2 (800 nm)
Method: as §1

gallbladder = experiment: Gallbladder NIR fluorescence imaging (FLARE); type: in vivo; settings: 25 g male mouse, 25 nmol intravenously, 4 hours; Channel 1 (700 nm) or Channel 2 (800 nm)
Method: as §1

## CC1(C)C(/C=C/C2=C(c3ccc(CCC(=O)O)cc3)C(=C/C=C3/N(CCC[N+](C)(C)C)c4ccc(S(=O)(=O)O)cc4C3(C)C)/CCC2)=[N+](CCC[N+](C)(C)C)c2ccc(S(=O)(=O)O)cc21 [A71]
ureters
  NIR fluorescence contrast of the ureter: highlighted with high contrast

## CC1(C)C(/C=C/C(Br)=C/C=C2/N(CCC[N+](C)(C)C)c3ccc(S(=O)(=O)O)cc3C2(C)C)=[N+](CCC[N+](C)(C)C)c2ccc(S(=O)(=O)O)cc21 [A106]
Bile duct
  NIR fluorescence contrast of the bile duct: highlighted with high contrast
Thoracic duct
  NIR fluorescence contrast of the thoracic duct: highlighted with high contrast

## CC1(C)C(/C=C/C(Br)=C/C=C2/N(CCC[N+](C)(C)C)c3ccc(Br)cc3C2(C)C)=[N+](CCC[N+](C)(C)C)c2ccc(Br)cc21 [A150]
Pan lymph nodes
  NIR fluorescence contrast of all lymph nodes: highlighted with high contrast

## CCCCN1/C(=C/C=C/C=C/C=C/C2=[N+](CCCC)c3ccc(Cl)cc3C2(C)C)C(C)(C)c2cc(Cl)ccc21 [AH34]
White adipose tissue
  NIR fluorescence contrast of the white adipose tissue: highlighted with high contrast

## COc1ccc2c(c1)C(C)(C)C(/C=C/C=C/C=C/C=C1/N(C)c3ccc(OC)cc3C1(C)C)=[N+]2C [AL22]
pancreas
  NIR fluorescence contrast of the pancreas: highlighted with high contrast
Pituitary gland
  NIR fluorescence contrast of the pituitary gland: highlighted with high contrast

## CCCCN1/C(=C/C=C/C=C/C=C/C2=[N+](CCCC)c3ccccc3C2(C)C)C(C)(C)c2ccccc21 [AL27]
adrenal
  NIR fluorescence contrast of the adrenal: highlighted with high contrast
ovaries
  NIR fluorescence contrast of the ovaries: highlighted with high contrast

## CC1(C)C(/C=C/C=C/C=C/C=C2/N(CCCc3ccccc3)c3ccccc3C2(C)C)=[N+](CCCc2ccccc2)c2ccccc21 [AL29]
spleen
  NIR fluorescence contrast of the spleen: highlighted with high contrast

## CC1(C)C(/C=C/C2=C(Sc3ccc(CC(=O)O)cc3)C(=C/C=C3/N(CCC[N+](C)(C)C)c4ccc(S(=O)(=O)O)cc4C3(C)C)/CCC2)=[N+](CCC[N+](C)(C)C)c2ccc(S(=O)(=O)O)cc21 [CNN2]
Seminal vesicle
  NIR fluorescence contrast of the seminal vesicle: highlighted with high contrast

## CC1(C)C(/C=C/C=C/C=C2/N(CCCc3ccccc3)c3ccc4ccccc4c3C2(C)C)=[N+](CCCc2ccccc2)c2ccc3ccccc3c21 [E16]
adrenal
  NIR fluorescence contrast of the adrenal: highlighted with high contrast

## CC1(C)C(/C=C/C(Br)=C/C=C2/N(CCCc3ccccc3)c3ccc4ccccc4c3C2(C)C)=[N+](CCCc2ccccc2)c2ccc3ccccc3c21 [E24]
spleen
  NIR fluorescence contrast of the spleen: highlighted with high contrast

## CC1(C)C(/C=C/C(=C/C=C2/N(CCC[N+](C)(C)C)c3ccc(S(=O)(=O)O)cc3C2(C)C)Oc2ccc(CCC(=O)O)cc2)=[N+](CCC[N+](C)(C)C)c2ccc(S(=O)(=O)O)cc21 [LN15]
ureters
  NIR fluorescence contrast of the ureter: highlighted with high contrast

## CC1(C)C(/C=C/C2=C(NCCc3ccc(N)cc3)C(=C/C=C3/N(CCC[N+](C)(C)C)c4ccc(S(=O)(=O)O)cc4C3(C)C)/CCC2)=[N+](CCC[N+](C)(C)C)c2ccc(S(=O)(=O)O)cc21 [LN65]
Seminal vesicle
  NIR fluorescence contrast of the seminal vesicle: highlighted with high contrast

## CN1\C(=C/C=C/C=C/C2=[N+](C)c3cc4c(cc3C2(C)C)OCO4)C(C)(C)c2cc3c(cc21)OCO3 [NRB1]
Salivary glands
  NIR fluorescence contrast of the salivary glands: highlighted with high contrast

## CCN(CC)c1ccc(/C=C/C2=CC(/C=C/c3ccc(N(CC)CC)cc3)=[O+][B-](F)(F)O2)cc1 [PS31]
White adipose tissue
  NIR fluorescence contrast of the white adipose tissue: highlighted with high contrast

## CCN1/C(=C/C=C2\CCCC(/C=C/C3=[N+](CC)c4ccccc4C3(C)C)=C2Oc2ccc(CCN)cc2)C(C)(C)c2ccccc21 [PS126]
Stem cells
  NIR fluorescence contrast of the cytoplasm of cell: highlighted with high contrast

## CCN1/C(=C/C=C(/C=C/C2=[N+](CC)c3ccccc3C2(C)C)Oc2ccc(CCN)cc2)C(C)(C)c2ccccc21 [PS127]
Stem cells
  NIR fluorescence contrast of the cytoplasm of cell: highlighted with high contrast

## CN1/C(=C/C=C/C=C/C=C/C2=[N+](C)c3ccc(Br)cc3C2(C)C)C(C)(C)c2cc(Br)ccc21 [QBN1]
Brown fat
  NIR fluorescence contrast of the brown fat: highlighted with high contrast

## CN1/C(=C/C=C/C=C/C=C/C2=[N+](C)c3ccc(F)cc3C2(C)C)C(C)(C)c2cc(F)ccc21 [QBN14]
thyroid
  NIR fluorescence contrast of the thyroid: highlighted with high contrast
parathyroid
  NIR fluorescence contrast of the parathyroid: highlighted with high contrast

## CN1/C(=C/C=C/C=C/c2sc3ccccc3[n+]2C)Sc2ccccc21 [SP28]
Choroid plexus
  NIR fluorescence contrast of the choroid plexus: highlighted with high contrast

## CCCCN1/C(=C/C=C/C=C/c2sc3ccccc3[n+]2CCCC)Sc2ccccc21 [SP30]
Brown fat
  NIR fluorescence contrast of the brown fat: highlighted with high contrast

## CCN1/C(=C/C=C/C=C/c2sc3cc(C)ccc3[n+]2CC)Sc2cc(C)ccc21 [SP60]
Pituitary gland
  NIR fluorescence contrast of the pituitary gland: highlighted with high contrast

## CN(C)CCCN1/C(=C/C=C/C=C/c2sc3cc(O)ccc3[n+]2CCCN(C)C)Sc2cc(O)ccc21 [SP66]
CSF
  NIR fluorescence contrast of the CSF: highlighted with high contrast

## CN1/C(=C/C=C/C=C/C2=[N+](C)c3ccc(F)cc3C2(C)C)C(C)(C)c2cc(F)ccc21 [T14]
thyroid
  NIR fluorescence contrast of the thyroid: highlighted with high contrast
parathyroid
  NIR fluorescence contrast of the parathyroid: highlighted with high contrast
pancreas
  NIR fluorescence contrast of the pancreas: highlighted with high contrast

## CCN(CC)c1ccc2nc3ccc(=[N+](CC)CC)cc-3oc2c1 [WuA96]
Brain grey matter
  NIR fluorescence contrast of the brain grey matter: highlighted with high contrast

## CCCC[N+]1=C(/C=C/C=C/C=C/C=C2/N(C)c3ccccc3C2(C)C)C(C)(C)c2cc(OC)ccc21 [ZK189]
Brain grey matter
  NIR fluorescence contrast of the brain grey matter: highlighted with high contrast

## CN1/C(=C/C2=CC3=C/C(=C/c4sc5cc(O)ccc5[n+]4C)CCC3CC2)Sc2cc(O)ccc21 (stereo not drawn) [ZK198]
gallbladder
  NIR fluorescence contrast of the gallbladder: highlighted with high contrast
Bile duct
  NIR fluorescence contrast of the bile duct: highlighted with high contrast
Thoracic duct
  NIR fluorescence contrast of the thoracic duct: highlighted with high contrast

## CN1/C(=C/C=C/C=C/C=C/c2sc3ccccc3[n+]2C)Sc2ccccc21 [ZK208]
Choroid plexus
  NIR fluorescence contrast of the choroid plexus: highlighted with high contrast

## CNCCCN1/C(=C/C=C/C=C/c2sc3ccccc3[n+]2CCCNC)Sc2ccccc21 [ZK211]
Salivary glands
  NIR fluorescence contrast of the salivary glands: highlighted with high contrast

Source: patent US11077210B2, “Near-infrared fluorescent contrast bioimaging agents and methods of use thereof” (Beth Israel Deaconess Medical Center, priority 2013, dated 2021)
